SMILES strings stand for the structures.

Assay [1] relates to embryogenic callus from maize split-seed explant. Put plainly: shoot regeneration from embryogenic callus on callus/somatic embryo shoot induction medium. The class given is cell-based. To be noted: maximum period of two months. As to the method:
Embryogenic calli/somatic embryos are transferred to a “callus/somatic embryo shoot induction medium” (which is an embodiment of the present and is described below) and allowed to develop shoots. The cultures are maintained at 27° C. under 16-hour soft white light. Shoot regeneration frequency is determined by calculating the number of embryogenic calli producing shoots and the number of shoots per callus.
A “callus/somatic embryo shoot induction medium” comprises MS basal salts and B5 vitamins supplemented with a cytokinin, or mixtures of cytokinins. A preferred cytokinin is BAP. The concentration of a cytokinin preferably ranges from 0.1 mg/l to 2.0 mg/l. Preferably the concentration of a cytokinin ranges from […] and most preferably ranges from 0.75 mg/l to 1.0 mg/l. In a preferred embodiment, a cytokinin is BAP is preferably at a concentration of 1.0 mg/l.
White and soft callus formed on the surface of split-seed explants is removed after one week for further growth on “primary calli maintenance medium” (FIG. 3B). Callus initiation from the split-seed is observed in four day old cultures. After one month in culture, highly proliferated calli (FIG. 3C) are transferred to an “embryogenic callus induction medium” containing 2,4-D at 0.1 mg/l and BAP at 0.5 mg/l to maintain embryogenic callus (FIG. 3D). The callus is sub-cultured every two weeks. […]

The subject of another assay is maize split-seed explant. The assay is described as follows: direct multiple shoot formation on split-seed explant shoot induction medium. The note with it: BAP alone. The class given is cell-based. As for the experimental part:
Another embodiment of the present invention provides a “split-seed explant shoot induction medium.” When a split-seed explant is exposed to a “split-seed explant shoot induction medium” and incubated under a 16-h soft white light at 27° C., the split-seed explant generates at least one shoot. A “split-seed explant shoot induction medium” comprises MS basal salts and B5 vitamins supplemented with a cytokinin or mixtures of cytokinins. A preferred cytokinin is BAP. The concentration of a cytokinin may range from 1.0 mg/l to 6.0 mg/l. Preferably the concentration of a cytokinin ranges from 1.0 mg/l to 5.0 mg/l and more preferably ranges from 1.5 mg/l to 4.5 mg/l. In a preferred embodiment, a cytokinin is BAP and is at a concentration of 3.0 mg/l to 4.0 mg/l. In a preferred embodiment, BAP is preferably at a concentration of 4.0 mg/l. A “split-seed explant shoot induction medium” further comprises glycine at a preferable concentration of 1.0 mg/l, casein hydrolysate at a preferable concentration of 400 mg/l, and sucrose at a preferable concentration of 30 g/l. A “split-seed explant shoot induction medium” may be solidified with 8.0 g/l agar. The pH of the medium is adjusted to 5.8 prior to adding the agar and the medium is autoclaved at 121° C. for 20 minutes.
In another embodiment, a “split-seed explant shoot induction medium” further comprises 6-furfurylaminopurine (“kinetin”). […]

For `c1ccc(CNc2ncnc3nc[nH]c23)cc1` [BAP, 6-benzylamino purine], in assay [1], the “BAP concentration giving the highest number of shoots” value turned out to be 1.0 mg/L. In addition, the multiple shoot induction entry with maize split-seed explant is recorded as “induces multiple shoots”.

Source of the values: patent publication US20060005273A1, “Novel maize split-seed explant and methods for in vitro regeneration of maize” (University of Toledo, priority 2004, published 2006).
